Assay: DPPH radical scavenging antioxidant test
Type: biochemical
Conditions: 517 nm; for Inhibition (radical scavenging inhibition): 0.2 mL DPPH (0.75 mM), compound 3 μM in ethanol, 30 min incubation in the dark
Protocol: The antioxidant activity of 5,5′-naphthalene-1,5-diylbis(diazene-2,1-diyl)bis(2-hydroxybenzaldehyde) was investigated by 2,2-diphenyl-1-picrylhydrazyl (DPPH) in vitro tests that employ vitamin C as the positive control.
The antioxidant properties of the 5,5′-naphthalene-1,5-diylbis(diazene-2,1-diyl)bis(2-hydroxybenzaldehyde) were studied by adding 0.2 mL DPPH (0.75 mM)) to compound 5,5′-naphthalene-1,5-diylbis(diazene-2,1-diyl)bis(2-hydroxybenzaldehyde) (III) (3 μM) in ethanol. After 30 min of incubation in the dark, the absorbance was read against a blank at 517 nm. Ascorbic acid (vitamin C) was used as standard antioxidants (positive control). A blank sample was prepared by 0.2 ml of DPPH in 3 ml ethanol. A negative control sample was run using ethanol instead of the sample. The radical scavenging inhibition was calculated using the following equation: […]
The antioxidant activity for the synthesized compound is listed in Table 1, using Vitamin C as a reference.

SMILES	Inhibition (radical scavenging inhibition)	antioxidant potential compared to vitamin C (vanishing DPPH radical colors) (DPPH in vitro test, vitamin C as positive control)
O=Cc1cc(/N=N\c2cccc3c(/N=N/c4ccc(O)c(C=O)c4)cccc23)ccc1O [Product III, 5,5′-naphthalene-1,5-diylbis(diazene-2,1-diyl)bis(2-hydroxybenzaldehyde)]	54%	high potential as an antioxidant
O=C1O[C@H]([C@@H](O)CO)C(O)=C1O [vit c, Ascorbic acid, reference compound]	74%	–

Source: US11952325B1, “5,5′-naphthalene-1,5-diylbis(diazene-2,1-diyl)bis(2-hydroxybenzaldehyde) as an antioxidant compound” (KING FAISAL UNIVERSITY, priority 2023, dated 2024)
